Experimental data from US20220242958A1, “BISPECIFIC NANOBODIES” (Ablynx N.V., priority 2013, published 2022).

Key:
[1] = test system: X4 HIV-1 clone NL4.3 (U87 cells); experiment: HIV-1 infection assay, U87 cells + NL4.3; type: cell-based; settings: Human immunodeficiency virus 1, U-87 MG; n = 3; read-out: IC50 (nM) U87 + NL 4.3 (X4)
[2] = test system: X4 HIV-1 clone NL4.3 (PBMCs); experiment: microbe, parasite or virus in culture; type: cell-based; settings: Human immunodeficiency virus 1, PBMC, read-out: IC50 (nM) PBMC + NL 4.3(X4)
[3] = test system: HIV-1 NL4.3 AMD-3100 res. variant; type: cell-based; settings: versus wild-type NL4.3
[4] = test system: dual-tropic (R5/X4) HIV-1 HE strain; experiment: HIV infection assay, MT-4 cells + HIV-1 HE; type: cell-based; settings: Human immunodeficiency virus 1, MT4
From the text: (§1) Viral strains used were the X4 HIV-1 clone NL4.3, R5 HIV-1 strain BaL, or the R5/X4 HIV-1 HE strain. Infection was done in MT-4 cells or phytohemagglutin-stimulated PBMCs from different healthy donors. The CXCR4-using (X4) HIV-1 clone NL4.3 was obtained from the National Institutes of Health NIAID AIDS Reagent program (Bethesda, Md.), the CCR5-using (R5) HIV-1 strain BaL was obtained from the Medical Research Council AIDS reagent project (Herts, UK). The dual-tropic (R5/X4) HIV-1 HE strain was initially isolated from a patient at the University Hospital in Leuven. The MT-4 cells were seeded out in 96-well plate and the U87 cells in 24-well plates. Nanobodies were added at different concentrations together with HIV-1 and the plates were maintained at 37° C. in 10% CO2. Cytopathic effect induced by the virus was monitored by daily microscopic evaluation of the virus-infected cell cultures. […] The absorbance was measured spectrophotometrically at 490 nm with a 96-well plate reader (Molecular Devices, Sunnyvale, Calif.) and compared with four cell control replicates (cells without virus and drugs) and four virus control wells (virus-infected cells without drugs). The IC50, i.e., the drug concentration that inhibits HIV-induced cell death by 50%, was calculated for each polypeptide from the dose-response curve. […]

HIV-2 ROD = experiment: HIV infection assay, MT-4 cells + HIV-2 ROD; type: cell-based; settings: Human immunodeficiency virus 2, MT4
From the text: as §1

hEGFR ECD = biological target: T1, hEGFR ECD (Homo sapiens, UniProt P00533); experiment: SPR (Biacore T100) on hEGFR extracellular domain; type: binding
T1 construct: directly immobilized hEGFR extracellular domain (Sino Biological, #10001-H08H); purchased Sino Biological 10001-H08H

Compound	IC50 [1] [nM]	IC50 [2] [nM]	loss in potency towards AMD3100 resistant virus [3] [fold]	IC50 [4] [nM]	IC50 (HIV-2 ROD) [nM]	hEGFR ECD ka (hEGFR ECD) [M⁻¹ s⁻¹]	hEGFR ECD kd (hEGFR ECD) [s⁻¹]
c1cc(CN2CCCNCCNCCCNCC2)ccc1CN1CCCNCCNCCCNCC1 [AMD3100, reference compound]	10	1.91	~100	3.9	21.1	–	–
EGFR#11: EGFR Nanobody variant 7C12 (A1E, Q108L)	–	–	–	–	–	220000	0.037
EGFR#32: EGFR Nanobody variant 7C12(A1E, E100fS, Q108L)	–	–	–	–	–	270000	0.23
